In ChEMBL document CHEMBL2448809, “UCSF DeRisi Lab MMV Box Apicoplast Screening” one finds Ratio data, which are given here for 93 molecules.

The test relates to Plasmodium falciparum. As to the kind of experiment: MMV: Compounds (1uM) were screened in a 72hr growth assay monitored by flow cytometry both in the presence and absence of supplemental isopentenyl pyrophosphate (IPP) 200uM. Compounds which fail to show anti-malarial activity when chemically rescued by IPP are therefore specific to the apicoplast. The values are expressed as the ratio of the corresponding activity with and without IPP, respectively. It counts as functional, W2.
`O=C(Nc1ccccc1O)c1ccc(-c2ccc(Cl)cc2Cl)o1`: the Ratio stood at 0.8413.

Regarding `CCn1c(SCC(=O)Nc2cc(C(F)(F)F)ccc2Cl)nc2ccccc2c1=O`, the Ratio came out at 1. The same measure for `CCCCOC(=O)c1ccc(Nc2cc(C)nc3ccc(OC)cc23)cc1`: 1.132; for `COc1cc2cc(C(=O)Nc3ccccc3)c(N)nc2cc1OC`: 1.031. The result for `Clc1ccc2[nH]c3c(NCCCN4CCOCC4)ncnc3c2c1` reads 0.9836; that for `COc1ccc(C2c3ccc4ccccc4c3Oc3ncn(CCCn4ccnc4)c(=N)c32)cc1OC` (stereo not drawn), 1.051; that for `FC(F)(F)c1ccc(Nc2nnnc3ccccc23)cc1`, 1.052.

`O=C(CCl)NCCOc1ccc(Cl)cc1Cl`: the Ratio came to 1.041. The same measure for `CC(C)(C)C(=O)Nc1ccc(C(=O)Nc2cccc(-c3nc4ccccc4[nH]3)c2)cc1`: 0.7684; for `CCN1CCCC1CNc1[nH]cnc2c3cc(Cl)ccc3nc1-2` (stereo not drawn): 0.925. For `Oc1c(CN2CCN(c3ccccc3F)CC2)cc(Br)c2cccnc12`, the Ratio amounted to 0.8919. The same measure for `CCOc1cc2c(cc1OCC)C(c1cc(Cl)c(O)c(OCC)c1)NCC2` (stereo not drawn): 0.8824.

`COc1cccc(Cn2c(Oc3ccccc3)nc3c2c(=O)n(C)c(=O)n3C)c1`: the Ratio is 0.9255. The same measure for `COc1ccc(-c2nonc2NC(=O)c2cccc(Cl)c2)cc1OC`: 0.9; for `COc1cccc(O)c1CN1CCC2(CCCN(Cc3ccc(F)cc3)C2)C1` (stereo not drawn): 0.8333.

As for `Cc1cc(NCCN2CCCCC2)c2ccc3ccccc3c2n1`, the Ratio is reported as 0.8873. As for `CCOc1ccc(CN2CCN(CC(O)COc3ccc(OCC(O)CN4CCN(Cc5ccc(OCC)cc5)CC4)cc3)CC2)cc1` (stereo not drawn), the Ratio is reported as 0.9863.

On to `O=C(Nc1ccc(F)c(Cl)c1)Nc1ccc(Cl)c(Cl)c1`, for which the Ratio is reported as 1.268. The result for `Cc1cccc(Nc2nc(N)c3ccccc3n2)c1.Cl` reads 0.9275. The result for `O=C(O)C(=O)O.Oc1ccc(Br)cc1CN1CCN(Cc2cccc(F)c2)CC1` reads 0.8333; that for `Cc1cc(Nc2ccc(OCc3ccccc3)cc2)nc2cc(O)ccc12`, 0.8026. The result for `Cc1ccc(NC(=O)Nc2cccc(Cl)c2)cc1F` reads 0.9455; that for `COc1ccc(/C=C2/SC(=Nc3ccccc3)NC2=O)cc1`, 1.136. For the molecule `CCC(C)NCC(O)(c1ccc(Cl)cc1)c1ccc(Cl)cc1` (stereo not drawn), the Ratio came out at 1.02. For `CCCN(CCC)CCCNC(=O)c1cc2c(-c3ccc(OC)c(OC)c3)nn(C)c2s1`, the Ratio turned out to be 1.186. On to `CCOc1ccc(-c2nonc2NC(=O)c2cccc(C)c2)cc1OCC`, for which the Ratio is on record as 0.6977. For `O=c1nc(C=Cc2ccc(Br)cc2)oc2ccccc12`, the Ratio came to 1.133.

Turning to `CCCCNCC(O)(c1ccc(Cl)cc1)c1ccc(Cl)cc1`, the Ratio was determined as 1.074. The same measure for `O=C(NNc1cc(N2CCCC2)nc(N2CCCC2)n1)c1ccccc1`: 0.9508; for `CC1CCCCN1CCCNC(=O)c1ccc2c(c1)sc1nc(-c3ccc(F)cc3)cn12` (stereo not drawn): 1.167; for `OC1CCCCC1C1(NC(=S)Nc2ccccc2)CCCCC1` (stereo not drawn): 0.9298.

Regarding `CCN(CC)CCNc1ncnc2c1[nH]c1ccc(Cl)cc12`, the Ratio is 0.6923. The result for `O=C(Nc1ccsc1C(=O)NC1CCCCC1)c1ccc(F)cc1` reads 0.9369.

Turning to `COc1ccc(C=C2SC(=N)N(c3ccccc3OC)C2=O)cc1`, the Ratio is 0.8861.

For `CC(Oc1ccc(NC(=O)c2cccs2)cc1)C(=O)c1ccc(Cl)cc1` (stereo not drawn), the Ratio turned out to be 1. The result for `Cl.Cn1c(=O)n(C)c2cc(CNCCNc3ccnc4cc(Cl)ccc34)ccc21` reads 1.09; that for `Cc1ccc2c(C)nc(Nc3nc(C)cc(-c4ccccc4)n3)nc2c1`, 0.8649; that for `Cc1ccccc1OCCSc1nc2ccc(NC(=O)c3ccccc3)cc2s1`, 0.8842.

For the molecule `FC(F)(F)c1cccc(CNC2CCN(CCc3ccccc3)CC2)c1`, the Ratio was 0.9344.

As to `CC1CC(C)CN(C(=O)c2ccc(Cl)cc2Cl)C1` (stereo not drawn), the Ratio is on record as 0.6364. Turning to `CC(=O)c1sc(NC(=O)Nc2ccc(C)cc2C)nc1C`, the Ratio worked out at 0.843. The same measure for `COc1ccc(-c2cc(=O)oc3c4c(ccc23)OCN(Cc2ccc(F)cc2)C4)cc1`: 0.9508; for `Cc1ccc(N2C(=O)C3C(C2=O)C2(c4ccccc4)C(=O)C3(c3ccccc3)C(c3ccccc3)=C2c2ccccc2)cc1` (stereo not drawn): 1.121. `COc1ccc(C(=O)Nc2nonc2-c2ccc(OC)c(OC)c2)cc1Cl`: the Ratio is given as 0.8261. `CCOc1ccccc1NC(=O)CN1CCN(C(=O)c2ccco2)CC1`: the Ratio was 0.906. Take `COc1cc(CNCCc2ccc(Cl)cc2)cc(OC)c1O`: the Ratio amounted to 0.9459. The same measure for `Oc1ccc(Br)cc1CN1CCN(Cc2ccc(Cl)cc2)CC1`: 0.9138.

For the molecule `Cc1sc(NC(=O)c2ccccc2)c(C(c2cccs2)N2CCN(c3ccccc3)CC2)c1C` (stereo not drawn), the Ratio was found to be 0.9412.

With `CCOC(=O)c1c(NC(=O)c2ccccc2)sc2c(O)c(CN(CC)CC)ccc12`, the Ratio was 0.8592. The same measure for `O=C(CSc1ccc2nnc(-c3cccc(F)c3)n2n1)Nc1ccc2c(c1)OCO2`: 0.7344. The same measure for `O=C(Nc1cccc(C(F)(F)F)c1)c1cc(Cl)ccc1O`: 0.9697; for `COc1ccc(C(=O)C2CC2c2ccc(Cl)cc2)cc1` (stereo not drawn): 1.308; for `CCCCOc1ccc(C(=O)Nc2cc(C)on2)cc1`: 0.9875. The same measure for `Cc1ccccc1OCCSc1nc2ccc(NC(=O)c3cccs3)cc2s1`: 0.9467. For the molecule `CCOC(=O)c1cnc2ccc(OC)cc2c1NCc1ccccc1`, the Ratio stood at 0.7154.

For `COc1ccc2sc(N(Cc3cccnc3)C(=O)c3ccc(C#N)cc3)nc2c1`, the Ratio turned out to be 0.8548. The same measure for `COc1ccc(C(=O)C(CCC(CNC(C)(C)C)C(=O)c2ccc(OC)cc2)CNC(C)(C)C)cc1` (stereo not drawn): 0.9453. As to `COCCN(C(=O)Cc1cccs1)C(C(=O)NCc1ccc(OC)cc1)c1ccc(C(C)C)cc1` (stereo not drawn), the Ratio is 0.8315.

In the case of `Cl.N=c1n(CCN2CCCCC2)c2ccccc2n1CC(O)c1cccc(Br)c1` (stereo not drawn), the Ratio came out at 0.8955.

Consider `CCCCCC(=O)N1c2ccccc2N=C2CC(c3ccc(OC)c(OC)c3)CC(O)=C2C1c1ccc(C(F)(F)F)cc1` (stereo not drawn), for which the Ratio amounted to 0.7792. The same measure for `CCC(c1ccccc1)c1nn2c(-c3cccs3)nnc2s1` (stereo not drawn): 0.775. The result for `Cl.Oc1ccccc1CNCC12CC3CC(CC(C3)C1)C2` reads 0.8; that for `O=C(Nc1ccc(Br)cc1)Nc1cccc(Cl)c1`, 1.104; that for `Oc1ccccc1CN1CCC2(CCCN(Cc3ccccc3F)C2)C1` (stereo not drawn), 0.9661. The same measure for `CNCCCNc1ccnc2cc(Cl)ccc12`: 0.8333; for `O=C(Nc1ccc(-c2nc3cc(NC(=O)c4ccc(Cl)cc4)ccc3[nH]2)cc1)c1ccc(Cl)cc1`: 0.9036; for `CCOc1cccc2sc(N(Cc3cccnc3)C(=O)C3CCCCC3)nc12`: 0.8788. Regarding `COc1ccc2c(c1)OC(O)(C(F)(F)C(F)(F)F)CC2=O` (stereo not drawn), the Ratio stood at 0.9. The result for `COc1ccc(C2Sc3ccccc3N=C3C2=C(O)c2ccccc23)cc1` (stereo not drawn) reads 1.228. For the molecule `c1ccc2c(NCCc3c[nH]c4ccccc34)c3ccccc3nc2c1`, the Ratio came out at 1.057. The result for `COc1ccc(-n2ccnc2SCC(=O)Nc2cc(C)ccc2C)c(OC)c1` reads 0.75; that for `CN(C)CCNc1cc(-c2ccccc2)nc2ccccc12`, 1.015. For `O=C(NCc1ccco1)C1CCN(S(=O)(=O)c2ccc(Cl)cc2)CC1`, the Ratio is 0.8889.

With `COc1ccc(OC)c(C2C3=C(CC(C)(C)CC3=O)N(c3ccc(Cl)c(Cl)c3)C3=C2C(=O)CC(C)(C)C3)c1`, the Ratio was determined as 0.9277. The result for `CCN(CC)c1cc(C)c2cc(NC(=O)c3cccc(OC)c3)ccc2n1` reads 1.095. On to `O=C(NC1CCN(Cc2ccccc2)CC1)c1cc(-c2cccnc2)nc2ccc(Cl)cc12`, for which the Ratio is 0.7184.

For the molecule `COc1ccc(CCn2c(=N)c(C(=O)NCc3cccnc3)cc3c(=O)n4cccc(C)c4nc32)cc1`, the Ratio is 0.875.

Regarding `Oc1ccc(C(=C(Cl)Cl)c2ccc(O)cc2)cc1`, the Ratio amounted to 1.113.

With `CCn1c(CN2CCN(Cc3ccccc3)CC2)nc2cc(NC(=O)c3cccs3)ccc21`, the Ratio turned out to be 0.8481.

Regarding `COc1ccc(-c2cc3c(SCC(=O)Nc4cc(C(F)(F)F)ccc4Cl)nccn3n2)cc1`, the Ratio is 0.9714. The result for `COc1ccccc1NC1=C(N2CCCCC2)C(=O)c2ccccc2C1=O` reads 0.9344; that for `CN1CCN(c2ncnc3c2[nH]c2ccc(Cl)cc23)CC1`, 0.9492. The same measure for `CN(C)c1ccc(-c2nc3cc(N)ccc3[nH]2)cc1`: 1.036.

With `COc1cc(C(=O)Nc2nc3c(cc4c5c(cccc53)CC4)s2)cc(OC)c1OC`, the Ratio stood at 0.8259. Regarding `CC(C)c1ccc(CNCC(O)c2ccccc2)cc1.Cl` (stereo not drawn), the Ratio is 0.9296. The result for `CCCCc1ccc(NS(=O)(=O)c2cc3c4c(c2)CCN4C(=O)CC3)cc1` reads 0.6295; that for `O=C(O)C1Cc2c([nH]c3ccccc23)C(c2ccc(Cl)cc2Cl)N1` (stereo not drawn), 6.316; that for `O=C(NCC1Cc2cccc(-c3ccncc3)c2O1)c1csc2c1CCCC2` (stereo not drawn), 0.6487. The result for `COc1ccc(-c2cc3c(nn2)-c2ccccc2C3=O)cc1` reads 1.105; that for `COc1ccc(Br)cc1C1Nc2ccc3ccccc3c2C2=C1C(=O)CC(c1ccccc1)C2` (stereo not drawn), 0.8077. For the molecule `CCCCCCc1cc2cc(-c3nc4ccccc4[nH]3)c(=Nc3ccccc3C)oc2cc1O`, the Ratio came to 0.9685. In the case of `CN(C)c1ccc(C=Cc2nc(=O)c3ccccc3o2)cc1`, the Ratio was 0.8302. The result for `CCOC(=O)c1cnc2c(C)cc(C)cc2c1Nc1ccc(OC)c(OC)c1` reads 1.122.
